Results on 14 compounds are retold here after patent US4548943A, “Antiinflammatory, analgesic, or anti-primary dysmenorrheal arylmethylene- and arylmethylindenoimidazoles” (E. I. Du Pont de Nemours and Company, priority 1984, dated 1985).

In experiment [1] the test system is adjuvant-induced arthritis in rats. Kind of experiment: Established adjuvant-induced arthritis in rats. Format: in vivo, rat (male Charles River Lewis). The note with it: for Adjuvant Arthritis, decrease in paw volume from controls at dose indicated: @ 9 mg/kg; for ED50: Rattus norvegicus, read-out: Adjuvant Arthritis ED50.
The target in experiment [2] is T1, bovine seminal vesicle prostaglandin synthetase (PGS) (Bos taurus, UniProt O62664).
T1 construct: purchased Miles; host or cells: bovine seminal vesicle
T1 sequence (O62664 25-600): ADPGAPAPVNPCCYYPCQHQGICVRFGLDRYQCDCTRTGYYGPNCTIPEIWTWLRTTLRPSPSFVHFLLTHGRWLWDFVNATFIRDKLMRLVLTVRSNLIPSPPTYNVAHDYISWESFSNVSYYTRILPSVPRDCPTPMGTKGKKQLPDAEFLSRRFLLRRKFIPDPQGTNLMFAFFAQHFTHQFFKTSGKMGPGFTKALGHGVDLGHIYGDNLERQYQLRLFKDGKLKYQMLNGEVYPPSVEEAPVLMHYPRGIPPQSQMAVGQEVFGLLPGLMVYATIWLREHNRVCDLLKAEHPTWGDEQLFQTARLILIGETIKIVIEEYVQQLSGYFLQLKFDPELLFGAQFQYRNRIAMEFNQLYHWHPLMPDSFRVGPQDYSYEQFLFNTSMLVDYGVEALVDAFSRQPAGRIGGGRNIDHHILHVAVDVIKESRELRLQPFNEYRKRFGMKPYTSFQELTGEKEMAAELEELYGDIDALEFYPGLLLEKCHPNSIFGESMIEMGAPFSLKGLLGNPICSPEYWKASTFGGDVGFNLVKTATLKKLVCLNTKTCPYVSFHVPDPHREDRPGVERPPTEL
Kind of experiment: Prostaglandin synthetase inhibition assay. It is filed as biochemical. The note with it: 14C-arachidonic acid 0.02 mM, pH 8.5, 10 minutes. As to the method: Prostaglandin Synthetase Inhibition Assay
The resulting labelled prostaglandins were isolated on small columns of Bio-Sil® A silica gel. The reaction was buffered with 0.13M Tris.Cl (pH 8.5) and included 0.6 mM epinephrine, 2.1 mM reduced glutathione, and 0.09 mM EDTA, which favored PGE2 as the primary product [C. […] Miles bovine seminal vesicle prostaglandin synthetase (20 μg), inhibitor, cofactor, and buffer were mixed and preincubated for two minutes at 37° C. The substrate was added to initiate the reaction which was run for 10 minutes. The reaction was stopped by freezing in a slurry of dry ice/ethanol. All reactions were run in duplicate. Inhibitors were bead-milled overnight and diluted in reaction buffer (0.2M Tris.Cl, pH 8.5). Inhibition was calculated by the following formula: [formula]

The test system of experiment [3] is phenylquinone writhing (mice). Kind of experiment: Phenylquinone writhing test. The note with it: for ED50: Mus musculus, po, read-out: PQW ED50; for PQW ED50: oral. It is filed as in vivo, mouse (female white). As to the method: Phenylquinone Writhing Test
A standard procedure for detecting and comparing the analgesic activity of compounds in this series for which there is a good correlation with human efficacy is the standard phenylquinone writhing test modified from Siegmund, et al., Proc. Soc. Exp. Biol. Med., 95, 729 (1957). A test compound suspended in 1% methylcellulose was given orally to fasted (17-21 hours) female white mice, 5-20 animals per double blind test. Aqueous (0.01% phenyl-p-benzoquinone)phenylquinone, 0.20 ml per mouse, was injected intraperitoneally 6 minutes before observations were begun. […] Rev., 11, 115-145 (1947). Data for some of the compounds is summarized in Table 4 together with data for some standard analgetic antiinflammatory drugs.
A general note: Writhing tests count abdominal constrictions after an irritant is injected.

[4] abbreviates: fasted female white mice, phenylquinone i.p.
Setting [5] is: oral, 7 daily doses, ED50 % decrease from control paw volume, uninjected left hind paw.

Each structure is given as a SMILES string. Like-named read-outs stand apart in the source and are kept apart here.

For `[O-][S+](c1nc2c([nH]1)C(=Cc1ccc(F)cc1)c1ccccc1-2)C(F)(F)F` (stereo not drawn) [Example 12, 1,8-Dihydro(or 3,8-dihydro)-2-(trifluoromethylsulfinyl)-8-[(4-fluorophenyl)methylene]indeno[1,2-d]imidazole, E isomer], in experiment [1] (oral, 7 daily doses), the “Adjuvant Arthritis, decrease in paw volume from controls at dose indicated” value (shortened to “Adjuvant Arthritis, decrease”) is listed as 48%. The same compound gave an IC50 in experiment [2] of 480 nM. In experiment [3] (setting [4]), the ED50 stood at 0.76 mg/kg.
As to `COc1ccc(C=C2c3ccccc3-c3nc(SC(F)(F)F)[nH]c32)cc1` [Example 7], the “Adjuvant Arthritis, decrease” value in experiment [1] (oral, 7 daily doses) was 39%. The compound further returned an IC50 in experiment [2] of 580 nM. The ED50 in experiment [3] (setting [4]) is over 108 mg/kg.
As for `O=S(=O)(c1nc2c([nH]1)C(=Cc1ccc(F)cc1)c1ccccc1-2)C(F)(F)F` [Example 13], the 50% effective dose (ED50) in experiment [1] (setting [5]) amounted to 9.8 mg/kg; in experiment [3] (setting [4]) it was 53.6 mg/kg. In experiment [2], this compound gave an IC50 of 420 nM.
`O=S(=O)(c1nc2c([nH]1)/C(=C\c1ccccc1)c1ccccc1-2)C(F)(F)F` [Example 3]: the “Adjuvant Arthritis, decrease” value in experiment [1] (oral, 7 daily doses) is listed as 37%. The same compound came in with an IC50 in experiment [2] of 930 nM. Moreover, in experiment [3] (setting [4]), the ED50 was over 81 mg/kg.
`Fc1ccc(C=C2c3ccccc3-c3nc(SC(F)(F)F)[nH]c32)cc1` [Example 11]: in experiment [1] (oral, 7 daily doses), the “Adjuvant Arthritis, decrease” value is 39%. Also, the IC50 in experiment [2] worked out at 2700 nM. For the same compound, in experiment [3] (setting [4]), the ED50 amounted to 21 mg/kg.
For the compound `COc1ccc(CC2c3ccccc3-c3nc(S(=O)(=O)C(F)(F)F)[nH]c32)cc1` (stereo not drawn) [Example 4, 1,8-DIHYDRO(OR 3,8-DIHYDRO)-2-(TRIFLUOROMETHYLSULFONYL)-8-[(4-METHOXYPHENYL)METHYL]INDENO[1,2-d]-IMIDAZOLE], in experiment [2], the IC50 worked out at 1200 nM.
As for `CC(C)Cc1ccc(C(C)C(=O)O)cc1` (stereo not drawn) [Ibuprofen, ibuprofen, reference compound], the results for the ED50 in experiment [1] (setting [5]) and in experiment [3] (setting [4]) were 80 mg/kg and 10 mg/kg, respectively.
For `O=S(=O)(c1nc2c([nH]1)/C(=C/c1ccccc1)c1ccccc1-2)C(F)(F)F` [Example 5, 1,8-Dihydro(or 3,8-dihydro)-2-(trifluoromethylsulfonyl)-8-(phenylmethylene)indeno[1,2-d]imidazole, E isomer], the figures for the ED50 in experiment [1] (setting [5]) and in experiment [3] (setting [4]) were 5.3 mg/kg and 1 mg/kg, respectively. In experiment [2], this compound displayed an IC50 of 23 nM.
As for `COc1ccc(C=C2c3ccccc3-c3nc(S(=O)(=O)C(F)(F)F)[nH]c32)cc1` [Example 9, 1,8-Dihydro(or 3,8-dihydro)-2-(trifluoromethylsulfonyl)-8-[(4-methoxyphenyl)methylene]indeno[1,2-d]imidazole, E isomer], in experiment [1] (setting [5]), the ED50 was found to be 1.95 mg/kg. In experiment [2], this compound gave an IC50 of 20 nM. In addition, the “PQW ED50” value in experiment [3] (setting [4]) is given as 1.44 mg/kg.
In the case of `COc1ccc(C=C2c3ccccc3-c3nc(S(=O)(=O)C(F)(F)F)[nH]c32)cc1` [Example 8, 1,8-dihydro(or 3,8-dihydro)-2-(trifluoromethylsulfonyl)-8-[(4-methoxyphenyl)methylene]-indeno[1,2-d]imidazole, Z isomer], the “Adjuvant Arthritis, decrease” value in experiment [1] (oral, 7 daily doses) is listed as 5%. In addition, half-maximal inhibition in experiment [2] (IC50) was put at 310 nM. The “PQW ED50” value in experiment [3] (setting [4]) is recorded as over 36 mg/kg.
As for `CCCCC1C(=O)N(c2ccccc2)N(c2ccccc2)C1=O` [Phenylbutazone, phenylbutazone, reference compound], the ED50 is 10 mg/kg in experiment [1] (setting [5]) and 80 mg/kg in experiment [3] (setting [4]). Moreover, the IC50 in experiment [2] stood at 270000 nM.
With `FC(F)(F)Sc1nc2c([nH]1)/C(=C/c1ccccc1)c1ccccc1-2` [Example 2], in experiment [1] (oral, 7 daily doses), the “Adjuvant Arthritis, decrease” value stood at 12%. This compound also gave an IC50 in experiment [2] of under 75000 nM. In addition, the ED50 in experiment [3] (setting [4]) stood at 35 mg/kg.
As for `COc1ccc2c(c1)c(CC(=O)O)c(C)n2C(=O)c1ccc(Cl)cc1` [Indomethacin, indomethacin, reference compound], the ED50 in experiment [1] (po) was 0.25 mg/kg; in experiment [3] it was 0.35 mg/kg.
Regarding `CC(=O)Oc1ccccc1C(=O)O` [Aspirin, aspirin, reference compound], the ED50 in experiment [3] worked out at 135 mg/kg.

The IC50 is the concentration needed to halve the response being measured. The low end stands for inhibition by little substance, the high end for a need for much substance. For orientation: ED50 means the dose at which the effect has come halfway, by size or by number of responders.
